Source: US20260347325A1, “DIPHENYLPYRAZOLE COMPOUNDS AND THEIR USE” (INSTITUT NATIONAL DE LA SANTÉ ET DE LA RECHERCHE MÉDICALE, priority 2022, published 2026)

Assays:
sAPPα = sAPPα secretion (sAPPα/sAPPβ multiplex kit); format: cell-based, human; settings: for EC (1.5-fold): Homo sapiens, 24 h, concentration to increase sAPPα by 1.5-fold vs untreated, read-out: sAPPα C1.5; for secretion of sAPPα: in words
Protocol: (§1) The human neuroblastoma cell line SY5Y-APP^695WT was maintained in Dulbecco's modified Eagle medium (DMEM, high glucose, pyruvate—GIBCO, Life Technologies) supplemented with 10% fetal bovine serum, 2 mM L-glutamine, 1 mM non-essential amino acids and penicillin/streptomycin (GIBCO, Life Technologies) at 37°C in a 5% CO2 humidified incubator [36]. For compound treatment, a 10 mM stock solution was diluted in freshly supplemented DMEM medium to obtain the precise final concentration of the drug. Cells were plated at a density of 5.10^5 cells per well into 12-well plates and cultured with 1 mL supplemented DMEM cell medium for 24 h before compound exposure. The following day, the cell medium was replaced with fresh medium containing the compounds diluted at the indicated concentrations. Cells were treated for 24 h. At the end of treatments, the cell medium was collected and kept at −80°C until use, cells were rinsed once with PBS and extracted in 100 μL of Laemmli buffer (10 mM Tris, 20% glycerol, and 2% sodium dodecyl sulfate) using a cell-scraper. The cell lysate was further sonicated (30 pulses of 0.5 s, 60 Hz) for 5 min. Total protein concentration was determined using the Pierce BCA Protein Assay Kit (Thermo Scientific) according to the manufacturer's instructions. Samples were stored at −80°C until analysis.
Conditioned media of SYSY-APP^695WT collected at the end of treatments were centrifuged at 1000×g for 5 min to eliminate cell debris.
(§2) Aβ1-40/Aβ1_42 peptides, Aβx-38/Aβx-40/Aβx-42 and sAPPα/sAPPβ concentrations in […] were determined, respectively, using amyloid-beta 40 and 42 Human ELISA kits (Invitrogen), V-PLEX Plus Aβ Peptide Panel 1 (4G8) Kit (Meso Scale Diagnostics, MSD R©) and sAPPα/sAPPβ multiplex kit (Meso Scale Diagnostics, MSD R©) according to the manufacturer's instructions.
(§3) Compounds of the invention (compounds 16-17, 24-35, 57-58 and 61-72) were evaluated for their ability to modulate APP processing on SYSY human neuroblastoma cell line stably expressing the neuronal isoform of human wild-type APP695 (SY5Y-APP^wt). APP carboxy-terminal fragments (αCTFs and AICD) levels were assessed by western blotting (WB). The effect of reference and test compounds on αCTFs and AICD is expressed as the intensity of corresponding WB bands. The concentration of compounds able to increase 20-times αCTFs and AICD (C20) when compared to the control condition was calculated. Selected compounds were also evaluated for their ability to modulate the secretion of soluble APP fragments (sAPPα and sAPPβ). Aβ1-x levels (Aβ1_40 and Aβ1-42) after treatment with reference and tested compounds were measured in the cell media by ELISA (Table 2). […] Selected hit compounds were then further evaluated for their ability to decrease the level of N-truncated Aβ peptides (Aβx-38, Aβx-40, and Aβx-42). […] 2015, 6, 559-569; B1: compound 8 of M. Gay et al., Bioorg. Med. Chem. 2018, 26, 2151-2164.
(§4) The activity of compounds of the invention on sAPPα 6 and sAPPβ was further explored. The expression of sAPPβ and sAPPα, which are by-products of β- and α-secretase respectively, were quantified in media of treated cells.

Aβ1-x peptides = test: Aβ1-x (Aβ1-40 and Aβ1-42) secretion; format: cell-based, human; settings: in words
Protocol: as §1, with “At the end of treatments, the cell medium was collected and kept at −80°C until use, cells were rinsed once with PBS and extracted in 100 μL of Laemmli buffer (10 mM Tris, 20% glycerol, and 2% sodium dodecyl sulfate) using a cell-scraper. The cell lysate was further sonicated (30 pulses of 0.5 s, 60 Hz) for 5 min.” left out, “Samples were stored at −80°C until analysis.” left out
as §2, with “instructions. […]” for “instructions.”

β-secretase = β-secretase cleavage of APP; format: cell-based, human; settings: in words
Protocol: as §3, §4

Aβ1-40 = Aβ1-40 secretion in SY5Y-APPwt cells (ELISA of conditioned media); format: cell-based; settings: Homo sapiens, 24 h, inhibiting 50% of Aβ1-40 secretion, mean ± SD of at least two experiments in triplicate
Protocol: (§5) 2. Cell Culture and Treatments
as §1
(§6) 5. Quantification of Secreted Aβ and sAPP […]
as §2
(§7) Compounds of the invention (compounds 16-17, 24-35, 57-58 and 61-72) were evaluated for their ability to modulate APP processing on SYSY human neuroblastoma cell line stably expressing the neuronal isoform of human wild-type APP695 (SY5Y-APP^wt). APP carboxy-terminal fragments (αCTFs and AICD) levels were assessed by western blotting (WB). The effect of reference and test compounds on αCTFs and AICD is expressed as the intensity of corresponding WB bands. The concentration of compounds able to increase 20-times αCTFs and AICD (C20) when compared to the control condition was calculated. Selected compounds were also evaluated for their ability to modulate the secretion of soluble APP fragments (sAPPα and sAPPβ). Aβ1-x levels (Aβ1_40 and Aβ1-42) after treatment with reference and tested compounds were measured in the cell media by ELISA (Table 2). […] Selected hit compounds were then further evaluated for their ability to decrease the level of N-truncated Aβ peptides (Aβx-38, Aβx-40, and Aβx-42). […]

Aβ1-42 = Aβ1-42 secretion in SY5Y-APPwt cells (ELISA of conditioned media); format: cell-based; settings: Homo sapiens, 24 h, inhibiting 50% of Aβ1-42 secretion, mean ± SD of at least two experiments in triplicate
Protocol: as §5, §1, §6, §2, §7

αCTF [1] = test: αCTF level in SY5Y-APPwt cells by western blotting; format: cell-based; settings: Homo sapiens, 24 h; concentration to increase αCTF by 20-fold vs untreated; mean of at least three experiments, less than 10% deviation; read-out: αCTF (C20)
Protocol: as §1
(§8) Cell protein lysates were prepared for western-blot analysis by diluting the sample with 1 volume of NuPAGE® lithium dodecyl sulfate (LDS) 2× sample buffer supplemented with 20% NuPAGE® sample reducing agents (Invitrogen). Samples were heated for 10 min at 100°C Ten μg of total proteins per well were loaded onto precast 4-12% Criterion XT Bis-Tris polyacrylamide gels (Bio-Rad) and electrophoresis was achieved after applying a tension of 150 V during 90 min using a Criterion electrophoresis Cell with the NuPAGE® MOPS SDS running buffer (1×). Proteins were transferred to a nitrocellulose membrane of […] pore size (G&E Healthcare) using the Criterion blotting system and applying a tension of 100 V for 45 min. To resolve proteins of low molecular weights such as carboxy-terminal fragments of APP, 12% Criterion XT Bis-Tris polyacrylamide gels (Bio-Rad) were used and electrophoresis was performed during 70 min at 150 V in a NuPAGE® MES SDS running buffer (1×). […] Protein transfer and quality were determined by a reversible Ponceau Red coloration (0.2% xylidine Ponceau Red and 3% trichloroacetic acid). […] Quantifications of protein expression levels were performed with Image Quant TL (G&E Healthcare). […]
(§9) Compounds of the invention (compounds 16-17, 24-35, 57-58 and 61-72) were evaluated for their ability to modulate APP processing on SYSY human neuroblastoma cell line stably expressing the neuronal isoform of human wild-type APP695 (SY5Y-APP^wt). […]

AICD [2] = test: AICD level in SY5Y-APPwt cells by western blotting; format: cell-based; settings: Homo sapiens, 24 h; concentration to increase AICD by 20-fold vs untreated; mean of at least three experiments, less than 10% deviation; read-out: AICD (C20)
Protocol: as §1, §8, §9

Cytotoxicity MTS assay = format: cell-based; settings: human, sy5y-app695wt cells; 50% of cell death after 72 h treatment
Protocol: Cytotoxicity was measured using 3-(4,5-dimethylthiazol-2-yl)-5-(3-carboxymethoxyphenyl)-2-(4-sulfophenyl)-2H-tetrazolium (MTS) tests. SY5Y-APP^695WT cells were plated in a 96-wells plate at 3.10^4 cells per well and allowed to attach for 24 h. Cells were then incubated for 72 h with 100 μL of DMEM medium with 10% SVF containing (or not) the defined concentration of drugs. Cytotoxicity was determined by using the colorimetric MTS assay (Cell Titer 96® Aqueous One Solution Cell Proliferation Assay-MTS Promega) according to the manufacturer's instructions. Absorbance was read at 490 nm.

sAPPβ = sAPPβ secretion (sAPPα/sAPPβ multiplex kit); format: cell-based; settings: Homo sapiens; inhibiting 50% of sAPPβ secretion in SY5Y cells; mean ± SD of at least three experiments in triplicate
Protocol: The human neuroblastoma cell line SY5Y-APP^695WT was maintained in Dulbecco's modified Eagle medium (DMEM, high glucose, pyruvate—GIBCO, Life Technologies) supplemented with 10% fetal bovine serum, 2 mM L-glutamine, 1 mM non-essential amino acids and penicillin/streptomycin (GIBCO, Life Technologies) at 37°C in a 5% CO2 humidified incubator [36]. For compound treatment, a 10 mM stock solution was diluted in freshly supplemented DMEM medium to obtain the precise final concentration of the drug. Cells were plated at a density of 5.10^5 cells per well into 12-well plates and cultured with 1 mL supplemented DMEM cell medium for 24 h before compound exposure. […] Total protein concentration was determined using the Pierce BCA Protein Assay Kit (Thermo Scientific) according to the manufacturer's instructions. […]
as §2, with “instructions. […]” for “instructions.”
as §4

αCTF [3] = settings: 20-fold increase vs untreated; prior art reference compounds, footnotes e, f cite literature; cited from earlier work
AICD [4] = settings: 20-fold increase vs untreated; prior art reference compounds, footnotes e, f cite literature; cited from earlier work
SY5Y-APP695WT cells = settings: 72 h; prior art reference compounds, footnotes e, f cite literature; read-out: Cytotoxicity CC50; cited from earlier work
Aβ = settings: in words; cited from earlier work
APP-CTFs and AICD = settings: in words; cited from earlier work
[5] = tested on: γ-secretase cleavage of Notch; settings: in words; cited from earlier work

Row | SMILES | EC (1.5-fold) (sAPPα) | IC50 (Aβ1-40) | IC50 (Aβ1-42) | EC (20-fold increase) (αCTF [1]) | EC (20-fold increase) (AICD [2]) | CC50 at 72 h (Cytotoxicity MTS assay) | further results
1 | Cc1cn(-c2cccc(CN(C)C)c2)nc1-c1ccc(CN(C)CCCN(C)C)cc1 [Compound 67, {[4-(1-{3-[(dimethylamino)methyl]phenyl}-4-methyl-1H-pyrazol-3-yl)phenyl]methyl}-[3-(dimethylamino)propyl]methylamine] | 1.4 µM | – | – | – | – | – | secretion of sAPPα (sAPPα): increasing the secretion of sAPPα; Aβ1-x peptides secretion (Aβ1-x peptides): reduce Aβ1-x peptides secretion; β-secretase cleavage of APP / β-secretase modulatory activity (β-secretase): repressing the β-secretase cleavage of APP
2 | CN(C)CCCc1ccc(-c2nn(-c3cccc(CN(C)CCCN(C)C)c3)cc2CCCN(C)C)cc1 [Compound 35, N′-[[3-[4-[3-(dimethylamino)propyl]-3-[4-[3-(dimethylamino)propyl]phenyl]-1H-pyrazol-1-yl]phenyl]methyl]-N,N,N′-trimethyl-propane-1,3-diamine] | – | 12.4 ± 0.6 µM | 13.2 ± 0.2 µM | 5.1 µM | 5.4 µM | > 100 µM | –
3 | CN(C)CCCc1ccc(-c2nn(-c3ccc(CN(C)CCCN(C)C)cc3)cc2CCCN(C)C)cc1 [Compound 33, N′-[[4-[4-[3-(dimethylamino)propyl]-3-[4-[3-(dimethylamino)propyl]phenyl]-1H-pyrazol-1-yl]phenyl]methyl]-N,N,N′-trimethyl-propane-1,3-diamine] | > 10 µM | 9.2 ± 0.4 µM | 9.7 ± 1.2 µM | 6.1 µM | 8.9 µM | > 100 µM | IC50 (sAPPβ): 6.8 ± 0.3 µM
4 | CN(C)CCCc1ccc(-c2nn(-c3ccc(CN(C)CCCN(C)C)cc3)cc2CN(C)C)cc1 [Compound 32, N′-[[4-[4-(dimethylaminomethyl)-3-[4-[3-(dimethylamino)propyl]phenyl]-1H-pyrazol-1-yl]phenyl]methyl]-N,N,N′-trimethyl-propane-1,3-diamine] | – | 4.2 ± 0.1 µM | 6.1 ± 0.3 µM | 1.1 µM | 1.8 µM | > 100 µM | –
5 | Cc1cn(-c2cccc(CN(C)CCCN(C)C)c2)nc1-c1ccc(CN(C)CCCN(C)C)cc1 [Compound 69, [3-(dimethylamino)propyl][(4-{1-[3-({[3-(dimethylamino)propyl](methyl)amino}methyl)phenyl]-4-methyl-1H-pyrazol-3-yl}phenyl)methyl]methylamine] | > 5 µM | – | – | – | – | – | –
6 | Cc1cn(-c2cccc(CN3CCN(C)CC3)c2)nc1-c1cccc(CN(C)CCCN(C)C)c1 [Compound 71, N,N,N′-trimethyl-N′-[[3-[4-methyl-1-[3-[(4-methylpiperazin-1-yl)methyl]phenyl]pyrazol-3-yl]phenyl]methyl]propane-1,3-diamine] | 1.1 µM | – | – | – | – | – | secretion of sAPPα (sAPPα): increasing the secretion of sAPPα; Aβ1-x peptides secretion (Aβ1-x peptides): reduce Aβ1-x peptides secretion; β-secretase cleavage of APP / β-secretase modulatory activity (β-secretase): repressing the β-secretase cleavage of APP
7 | CN(C)CCCc1ccc(-c2nn(-c3cccc(CN(C)CCCN(C)C)c3)cc2CN(C)C)cc1 [Compound 34, N′-[[3-[4-(dimethylaminomethyl)-3-[4-[3-(dimethylamino)propyl]phenyl]-1H-pyrazol-1-yl]phenyl]methyl]-N,N,N′-trimethyl-propane-1,3-diamine] | > 10 µM | 5.7 ± 0.5 µM | 8.3 ± 0.2 µM | 1.1 µM | 1.9 µM | > 100 µM | IC50 (sAPPβ): 4.5 ± 0.7 µM
8 | CCN(CC)CCCC(C)Nc1ccnc2cc(Cl)ccc12 (stereo not drawn) [CQ, chloroquine] | – | – | – | – | – | – | αCTF (C20) (αCTF [3]): >>10 μM; AICD (C20) (AICD [4]): >>10 μM; CC50 (SY5Y-APP695WT cells): 30 µM; Aβ production (Aβ): inhibit Aβ production; levels of other APP metabolites such as APP-CTFs and AICD (APP-CTFs and AICD): maintained and even increased; γ-secretase cleavage of Notch [5]: remains unmodified
